Here are results for two sequences from patent US10508140B2, “Peptide having hair growth-promoting activity and/or melanin generation-promoting activity, and use thereof” (CAREGEN CO., LTD., priority 2016, dated 2019).

No end group written: not given here.

Common to all, as to format: cell-based
Assay [1] concerns Bax. Kind of assay: Bax western blotting. The settings on record: human hair follicle dermal papilla cells, 24 hours. On the procedure: (§1) Human hair follicle dermal papilla cells were seeded at a density of 4×10^5 cells/well on 6-well plate, followed by incubation overnight. After changing into serum-free medium, the cells were treated with the peptides, followed by incubation for 24 hours, and then the wells were harvested to prepare cell lysate. Western blotting was performed using Bcl-2 and Bax antibodies (Santa Cruz Biotechnology, USA) to compare protein expression patterns.

For assay [2], the system named is MITF. Kind of assay: Melanogenesis-related protein western blotting: MITF. The conditions noted are these: B16F10 cell line, 72 hours. The protocol: (§2) Melanocytes (B16F10 cell line) were incubated on 6-well culture plates for 24 hours, and were treated with the peptides of the present invention with different concentrations. After 72-hour incubation, the cells were lysed, and the cells were subjected to western blotting using specific antibodies (two types, both from Santa Cruz Biotechnology, USA) to investigate the expression of MITF and tyrosinase, which are factors involved in melanogenesis.

Assay [3] relates to DKK-1. Briefly: DKK-1 RT-PCR. The conditions noted are these: human hair follicle dermal papilla cells, DKK-1 increased by DHT, 24 hours. On the procedure: (§3) Human hair follicle dermal papilla cells were seeded at a density of 5×10^5 cells/well on 6-well plates, followed by incubation overnight. After changing into serum-free medium, the cells were treated with the peptides, followed by incubation for 24 hours, and then the wells were harvested to isolate RNA. After RNA quantification, cDNA synthesis was conducted using the cDNA synthesis kit (Intron, Korea), followed by PCR using PCR premix (Intron, Korea) and DKK-1 primers, and then electrophoresis was performed on 5% agarose gel to compare the mRNA expression levels of the growth factors in respective sample treatment conditions.

The subject of assay [4] is tyrosinase. Kind of assay: Melanogenesis-related protein western blotting: tyrosinase. The conditions noted are these: B16F10 cell line, 72 hours. On the procedure: as §2
Background: A western blot detects proteins with antibodies after separation by electrophoresis.

For assay [5], the system named is β-catenin. Briefly: β-Catenin activity test (western blotting, nuclear and cytoplasmic proteins). The conditions noted are these: human hair follicle dermal papilla cells, 15 and 30 minutes. On the procedure: Human hair follicle dermal papilla cells were seeded at a density of 4×10^5 cells/well on 6-well plates, followed by incubation overnight. After changing into serum-free medium, the cells were treated with the peptides, followed by incubation for 15 and 30 minutes, and then the wells were harvested to isolate nuclear and cytoplasmic proteins. Western blotting was performed using β-catenin (Santa Cruz Biotechnology, USA) to compare β-catenin expression patterns.

For assay [6], the system named is DKK-1. Kind of assay: DKK-1 western blotting. The conditions noted are these: human hair follicle dermal papilla cells, DKK-1 increased by DHT, 24 hours. The protocol:
Human hair follicle dermal papilla cells were seeded at a density of 4×10^5 cells/well on 6-well plate, followed by incubation overnight. After changing into serum-free medium, the cells were treated with the peptides, followed by incubation for 24 hours, and then the wells were harvested to prepare cell lysate. Western blotting was performed using DKK-1 antibodies (Santa Cruz Biotechnology, USA) to compare protein expression patterns.

In assay [7] the test system is ERK. Briefly: p-ERK western blotting. The settings on record: human hair follicle dermal papilla cells, 15 and 30 minutes. On the procedure: (§4) Human hair follicle dermal papilla cells were seeded at a density of 4×10^5 cells/well on 6-well plate, followed by incubation overnight. After changing into serum-free medium, the cells were treated with the peptides, followed by incubation for 15 and 30 minutes, and then the wells were harvested to prepare cell lysate. Western blotting was performed using PI3K antibodies (Santa Cruz Biotechnology, USA) and phospho-ERK antibody (Cell Signaling Technology, USA) to compare protein expression patterns.

Assay [8] concerns CREB. Kind of assay: Melanogenesis-related protein activity assay: CREB phosphorylation (western blotting). The conditions noted are these: B16F10 cell line, 72 hours. On the procedure:
Melanocytes (B16F10 cell line) were incubated on 6-well culture plates in an incubator for 24 hours, and were treated with the peptide of the present invention with different concentrations. After 72-hour incubation, the cells were lysed, and the cells were subjected to western blotting using specific antibodies (Cell Signaling Technology, USA) to investigate the phosphorylation level of CREB, which is a signaling substance involved in melanogenesis.

For assay [9], the system named is MITF. Kind of assay: Melanogenesis-related gene RT-PCR: MITF. The settings on record: B16F10 cell line, 72 hours. The protocol: (§5) Melanocytes (B16F10 cell line) were incubated on 6-well culture plates in an incubator for 24 hours, and were treated with the peptides of the present invention with different concentrations. After RNA was extracted from the cells incubated for 72 hours, cDNA was prepared. PCR was performed by using respective primers specific to MITF and tyrosinase, which are factors involved in melanogenesis, and the expression changes of the respective genes were observed.

The subject of assay [10] is tyrosinase. Kind of assay: Tyrosinase activity assay. The conditions noted are these: B16F10 cells, 72 hours, L-dopa, absorbance 475 nm. On the procedure:
Melanoma cell line (B16F10) cells were cultured in 6-well culture plates for 24 hours, and treated with a peptide with difference concentrations, followed by culture for 72 hours. The 6-well culture plates were loaded on ice and washed with cool PBS, and then 300 μl of 0.1 M sodium phosphate buffer (pH 6.8 lysis buffer) containing 1% Triton X-100 was added. The cells were collected in 1.5-mL tubes, and then cell membranes were disrupted by repeating five times rapid-freezing at […] and thawing. After centrifugation at 13,000 rpm for 20 minutes, the supernatant was collected in other 1.5-mL tubes, and the protein of the samples was quantified. The samples were diluted to have the same protein concentration and then dispensed in each three wells in a 96-well culture plate, and then 20 μl of 10 mM L-dopa was added, followed by incubation at 37° C. for 1 hour.

Assay [11] has as its system PI3K. Briefly: PI3K western blotting. The settings on record: human hair follicle dermal papilla cells, 15 and 30 minutes. The protocol:
as §4

In assay [12] the test system is melanocytes (B16F10 cell line). Briefly: Melanin measurement assay. The settings on record: 72 hours, absorbance 490 nm. On the procedure:
After melanocytes (B16F10 cell line) in 6-well plates were cultured in an incubator at 37° C. for 24 hours, the medium of each plate was removed and exchanged with a fresh medium, followed by treatment with the present peptide with different concentrations. After the incubation for 72 hours, the culture medium was removed, and the cells were taken off and then transferred into 1.5-ml tubes, followed by centrifugation at 13,000 rpm for 3 minutes. The supernatant was removed, and cell pellets were collected to observe melanin. Then, 150 μl of 2 M NaOH was added to the cell pellets to lyse intracellular melanin at 60° C. for 30 minutes. Then, 100 μl of the supernatant obtained from the lysis was added into each well of 96-well plates, and the absorbance was measured at 490 nm.

The subject of assay [13] is KGF. Kind of assay: KGF RT-PCR. The conditions noted are these: human hair follicle dermal papilla cells, 24 hours. On the procedure:
as §3, with “4×10^5” for “5×10^5”, “plate,” for “plates,”, “respective KGF and VEGF” for “DKK-1”, “in” for “in respective”

The test system of assay [14] is TGF-β1. Briefly: TGF-β1 RT-PCR. The settings on record: human hair follicle dermal papilla cells, 24 hours. The protocol:
as §3, with “4×10^5” for “5×10^5”, “plate,” for “plates,”, “TGF-β1” for “DKK-1”

For assay [15], the system named is Bcl-2. Kind of assay: Bcl-2 western blotting. The conditions noted are these: human hair follicle dermal papilla cells, 24 hours. The protocol: as §1
The test system of assay [16] is tyrosinase. Kind of assay: Melanogenesis-related gene RT-PCR: tyrosinase. The conditions noted are these: B16F10 cell line, 72 hours. The protocol: as §5
Assay [17] has as its system keratin-14. Kind of assay: Keratin-14 RT-PCR. The settings on record: human hair follicle dermal papilla cells, 24 hours. The protocol:
as §3, with “Ha3-II and keratin-14” for “DKK-1”

Assay [18] deals with Human hair follicle dermal papilla cells. Briefly: DPC proliferation assay (MTT). The settings on record: serum-free medium, incubation for 3 days, absorbance 550 nm. The protocol:
Human hair follicle dermal papilla cells were seeded at a density of 2×10^3 cells/well on 96-well plates, followed by incubation overnight. After changing into serum-free medium, the cells were treated with the peptides, followed by incubation for 3 days, and then the wells were treated with 4 mg/ml MTT solution, followed by reaction for 4 hours. The resulting formazan was solubilized with DNSO, and then the absorbance was measured at 550 nm using a microplate reader.

Assay [19] concerns VEGF. Briefly: VEGF RT-PCR. The settings on record: human hair follicle dermal papilla cells, 24 hours. On the procedure: as §3, with “4×10^5” for “5×10^5”, “plate,” for “plates,”, “respective KGF and VEGF” for “DKK-1”, “in” for “in respective”
The test system of assay [20] is Ha3-II. Kind of assay: Ha3-II RT-PCR. The settings on record: human hair follicle dermal papilla cells, 24 hours. The protocol:
as §3, with “Ha3-II and keratin-14” for “DKK-1”

For assay [21], the system named is MSX2. Briefly: MSX2 RT-PCR. The settings on record: human hair follicle dermal papilla cells, 24 hours. On the procedure: as §3, with “4×10^5” for “5×10^5”, “plate,” for “plates,”, “MSX2” for “DKK-1”, “level” for “levels”, “factor” for “factors”, “in” for “in respective”
For assay [22], the system named is TRP1. Kind of assay: Melanogenesis-related gene RT-PCR: TRP1. The conditions noted are these: B16F10 cell line, 72 hours, FIG. 13b.

As to KWKRSADTL [SEQ ID NO: 2], the “expression of the apoptosis-related protein Bax” value in assay [1] is reported as “decreased”. Also, the “protein expression of MITF transcription factor” value in assay [2] was “increases”. The “mRNA expression of DKK-1” value in assay [3] is on record as “decreased”. In [4], the “protein expression of tyrosinase enzyme” value is listed as “increases”. In addition, the “activity of β-catenin” value in assay [5] was “increased”. Moreover, the “protein expression of DKK-1” value in assay [6] is listed as “decreased”. Besides, the “phosphorylation level of ERK” value in [7] is listed as “increase”. Moreover, the “phosphorylation level of CREB” value in [8] is given as “increased”. Besides, the “mRNA expression of MITF transcription factor” value in assay [9] is “increased”. Also, in assay [10], the tyrosinase activity result is reported as “increased”. The “expression of PI3K” value in assay [11] is “increase”. For the same sequence, the melanogenesis result in assay [12] is listed as “increased”. For the same sequence, the “expression of KGF (mRNA)” value in assay [13] is on record as “increased”. The “expression of TGF-β1 (mRNA)” value in assay [14] is “inhibited”. Besides, the “expression of the anti-apoptotic protein Bcl-2” value in [15] is “increased”. Besides, the “mRNA expression of tyrosinase enzyme” value in [16] is recorded as “increased”. For the same sequence, the “mRNA expression of keratin-14” value in assay [17] is given as “increased”. The “growth of human hair follicle dermal papilla cells” value in assay [18] is listed as “stimulated in a dose-dependent manner”.
For the sequence WKWRSADTL [SEQ ID NO: 1], in assay [1], the “expression of the apoptosis-related protein Bax” value is on record as “decreased”. Also, in assay [2], the “protein expression of MITF transcription factor” value is “increased”. In assay [3], the “mRNA expression of DKK-1” value is listed as “decreased”. In addition, the “protein expression of tyrosinase enzyme” value in assay [4] is reported as “increased”. Moreover, the “activity of β-catenin” value in [5] is listed as “increased”. Moreover, the “protein expression of DKK-1” value in [6] is on record as “decreased”. In addition, the “phosphorylation level of ERK” value in assay [7] was “increased”. In addition, in assay [9], the “mRNA expression of MITF transcription factor” value is reported as “increased”. Besides, the tyrosinase activity result in [10] was “increased”. In assay [19], the “expression of VEGF (mRNA)” value is “increased”. Further, the “mRNA expression of Ha3-II” value in [20] was “increased”. Moreover, the melanogenesis entry in assay [12] was “increased”. Besides, the “expression of TGF-β1 (mRNA)” value in assay [14] is “inhibited”. For the same sequence, the “expression of the anti-apoptotic protein Bcl-2” value in [15] is “increased”. Further, the “mRNA expression of tyrosinase enzyme” value in assay [16] is recorded as “increased”. In addition, in [21], the “expression of MSX2 (mRNA)” value was “increased”. The “mRNA expression of keratin-14” value in [17] was “increased”. In assay [18], the “growth of human hair follicle dermal papilla cells” value is recorded as “stimulated in a dose-dependent manner”. Further, in assay [22], the “mRNA expression of TRP1” value was “increases”.
